The values that follow come from patent US4833138A, “Phenothiazinealkaneamines for treatment of neurotoxic injury” (priority 1987, dated 1989).

The subject of series [1] is NMA neurotoxicity in chick embryo retina. Kind of series: NMDA/KA Antagonist Assay, chick embryo retina, NMA (200 μM) neurotoxicity. Type of series: cell-based. The settings on record: 15-day old chick embryo retina, 30 min at 37° C., n>6.
Method: (§1) Two agonists were employed in the present test, each at a concentration established previously to be the lowest concentration required to consistently cause a fully-developed retinal lesion: KA (25 μM) and NMA (200 μM). […] Internal controls in each experiment consisted of at least six specimens being incubated with agonist alone. […] The method of tissue preparation was as follows: 15-day old chick embryos were decapitated and their eyes removed and cut into quadrants after excising the cornea and removing the lens, vitreous and iris. The retinal quadrants were then gently separated from the pigment epithelium and incubated for 30 min. at 37° C. in BSS to which an agonist or agonist plus antagonist was added. The BSS contained 140 mM Na^+, 5.0 mM K^+, 0.5 mM Ca^++, 4 5mM Mg^++, 150 mM Cl^-, 5.6 mM glucose and bicarbonate/phosphate buffer (pH 7.3). After incubation for 30 min., the retinal quadrants were fixed by immersion in phosphatebuffered solution containing 1.5% glutaraldehyde and 1% paraformaldehyde, then additionally fixed in 1% osmium tetroxide, dehydrated in graded ethanols, cleared in toluene and embedded in araldite. Sections were cut 1 μM thick on a Sorval ultratome and stained with Methylene blue/Azure 11 for histopathological evaluation by light microscopy.
Series [2] concerns KA neurotoxicity in chick embryo retina. Description: NMDA/KA Antagonist Assay, chick embryo retina, KA (25 μM) neurotoxicity. Type of series: cell-based. The settings on record: 15-day old chick embryo retina, 30 min at 37° C.
Method: as §1
Series [3] relates to N-Methylaspartate excitation of spinal neurones. The settings on record: Berry et al, Eur. J. Pharm. 1983; binding and behavioral data; cited from earlier work.
Series [4] relates to [^3 H]PCP binding sites, rat cerebral cortical membranes. The settings on record: Goldman et al, FEBS Lett. 1985; cited from earlier work.
Series [5] relates to chick embryo retina. Kind of series: Acute excitotoxic lesion of chick embryo retina by agonist alone. The settings on record: 1 mM Glu, 30 min in BSS.
Method: as §1
In series [6] the test system is N-methyl-D-aspartate receptor. The note with it: Wong et al, PNAS 1986; cited from earlier work.
The subject of series [7] is chick embryo retina. The settings on record: chicken, 30 min.
Method: as §1
The subject of series [8] is NMDA receptor (N-Methyl-Aspartate excitation of central mammalian neurones). The settings on record: Anis et al, Br. J. Pharmacol. 1983; cited from earlier work.
In a further series the test system is NMA neurotoxicity. The settings on record: Olney et al, Neuroscience Letters 1986 for PCP and ketamine; competitive NMA antagonist statement without reference; cited from earlier work.

Structures can show the parent of a compound that is named as a salt.

“10-[2-(diethylamino)ethyl]phenothiazine [ethopropazine]”: the “concentration providing total protection against toxicity of NMA” value in series [1] turned out to be 25.0 µM. The “blocking of KA toxicity” value in series [2] is recorded as “not observed”.

Take `CC1CCCN(C2(c3ccccc3)CCCCC2)C1` (single isomer, unassigned; (+)) [(+)-PCMP, (+)-1-(1-phenylcyclohexyl)-3-methylpiperidine]: the “stereoselective effect over isomer counterpart in reducing the excitatory action of NMDA” value in series [3] is “stereoselective effects”. The “inhibition of the specific binding of [^3 H]PCP” value in series [4] is listed as “potent inhibitor”.

On to `N[C@@H](CCC(=O)O)C(=O)O` [Glu, Glutamate], for which the retinal lesion entry with chick embryo retina [5] is “full lesion”.

As to `C[C@]12N[C@H](Cc3ccccc31)c1ccccc12` [MK-801, (+)-5-methyl-10,11-dihydro-5H-dibenzo[a,d]cyclohepten-5,10-imine maleate)], the “antagonism of the N-methyl-D-aspartate receptor site” value in series [6] is given as “potent, selective non-competitive antagonist”.

On to `CN[C@H](CC(=O)O)C(=O)O` [NMA, N-methyl-D-aspartate], for which the “lowest concentration required to consistently cause a fully-developed retinal lesion” value in the series on chick embryo retina [7] turned out to be 200 µM.

With `c1ccc(C2(N3CCCCC3)CCCCC2)cc1` [PCP], the “reduction of excitatory effects of NMDA as compared to KA and QUIS” value in series [8] was “reduce selectively the excitatory effects of NMDA as compared to KA and QUIS”. In the series on NMA neurotoxicity, the “blocking of NMA neurotoxicity” value is given as “Blocking of NMA neurotoxicity”.

For `CC1CCC(c2ccccc2)(N2CCCCC2)CC1` (stereo not drawn) [cis-N-(1-phenyl-4-methylcyclohexyl)piperidine], the “stereoselective effect over isomer counterpart in reducing the excitatory action of NMDA” value in series [3] is reported as “stereoselective effects”.

Regarding `CNC1(c2ccccc2Cl)CCCCC1=O` (stereo not drawn) [ketamine], the “reduction of excitatory effects of NMDA as compared to KA and QUIS” value in [8] was “reduce selectively the excitatory effects of NMDA as compared to KA and QUIS”. The “blocking of NMA neurotoxicity” value with NMA neurotoxicity is “Blocking of NMA neurotoxicity”.
